Test results as given in paper PMC10813753 (Biology, 2024).

Tested on: HeLa cells
Test: Cell cycle analysis by flow cytometry, HeLa
Type: cell-based, human
Conditions: ½ IC50 concentration, 72 h
Method: For cell cycle experiments, exponentially growing HeLa cells in DMEM were seeded in 6-well plates at a density of 2.5 × 10^5/well. […] Untreated cells were used as controls. After washing with PBS, cells were detached with 0.25% trypsin/0.2% EDTA and centrifuged at 1500 rpm for 5 min at rt. The resulting pellets were mixed with cold 70% ethanol (0.5 mL) and kept at 4 °C for 30 min. Ethanol was removed by centrifugation, and the pellets were washed with 2 mL PBS + 2% BSA and centrifuged. After discarding the supernatants, a propidium iodide solution (PI/RNAse, FxCycle^TM, Invitrogen^TM ref. F10797, 0.5 mL, Thermo Fisher, Madrid, Spain) was added, mixed thoroughly and incubated for 15 min at room temperature prior to analysis by flow cytometry. A total of 10,000 events were registered for each sample. The obtained results were analyzed with the MacsQuantify 2.13.1 program (Miltenyi Biotech, Pozuelo de Alarcón, Spain) and represented as histograms.

## 2,2′-(1,10-Phenanthroline-2,9-diyl)-bis(methylene)-bis(hydrazine-1-carbothioamide) [compound 1]
  change in SubG0 population: notably increased the number of cells in SubG0
